Laboratory results as given in patent EP0335545B2, “Pharmaceutical formulations for parenteral use” (UNIVERSITY OF FLORIDA, priority 1988, dated 1989).
In brackets after ≈: the same amount, converted by molar mass.

Key:
[1] = Phase-solubility experiments in aqueous HPCD at 25±1°C
Experimental: For comparison, the solubilities of the drugs in water were also determined.
• Wavelength: 245 nm • Column: Waters µBondapak CN, 3.9 mm (id.) x 30 cm • Mobile phase: acetonitrile, acetic acid, water (60:1:39) containing 0.1% 1-hexasulfonic acid, sodium salt • Flow rate: 2.00 mL/min.
• Wavelength: 263 nm • Column: ASI C18, 10 µm, 3.9 mm (i.d.) x 30 cm • Mobile phase: acetonitrile, water (55:45) • Flow rate: 1.00 mL/min.
• Wavelength: 241 nm • Column: Waters µBondapak CN, 3.9 mm (i.d.) x 30 cm • Mobile phase: acetonitrile, water (6:4) • Flow rate: 2.00 mL/min.
• Wavelength: 280 nm • Column: ASI C18, 10 µm, 3.9 mm (i.d.) x 30 cm • Mobile phase: acetonitrile, water (55:45) • Flow rate: 2.00 mL/min.
• Wavelength: 248 nm • Column: Fisher Resolvex C18, 4.6 mm (i.d.) x 25 cm • Mobile phase: acetonitrile, water (6:4) • Flow rate: 1.50 mL/min.
• Wavelength: 248 nm • Column: Fisher Resolvex C18, 4.6 mm (i.d.) x 25 cm • Mobile phase: acetonitrile, water (7:3) • Flow rate: 2.00 mL/min.
• Wavelength: 253 nm • Column: Waters µBondapak CN, 3.9 mm (i.d.) x 30 cm • Mobile phase: acetonitrile, […], water (60:1:39) containing 0.1% 1-hexanesulfonic acid, sodium salt • Flow rate: 2.00 mL/min.
• Wavelength 308 nm • Column: Fisher Resolvex C18, 4.6 mm (i.d.) x 25 cm • Mobile phase: methanol, acetic acid, water (50:1:49) containing 0.1% 1-octanesulfonic acid, sodium salt • Flow rate: 2.00 mL/min.
• Wavelength: 240 nm • Column: Fisher Resolvex C18, 4.6 mm (i.d.) x 25 cm • Mobile phase: acetonitrile, water (6:4) • Flow rate: 1.50 mL/min.
• Wavelength: 240 nm • Column: Fisher Resolvex C18, 4.6 mm (i.d.) x 25 cm Mobile phase: acetonitrile, water (7:3) • Flow rate: 2.00 mL/min.
• Wavelength: 241 nm • Column: Fisher Resolvex C18, 4.6 mm (i.d.) x 25 cm • Mobile phase: acetonitrile, water (7:3) • Flow rate: 2.00 mL/min.
• Wavelength: 230 nm • Column: Waters µBondapak CN, 3.9 mm (i.d.) x 30 cm • Mobile phase: acetonitrile, water (35:65) • Flow rate: 2.00 mL/min.
• Wavelength: 258 nm • Column: Fisher Resolvex C18, 4.6 mm (i.d.) x 25 cm • Mobile phase: acetonitrile, water (55:45) • Flow rate: 2.00 mL/min.
• Wavelength: 325 nm • Column: Waters µBondapak C18, 10 µm, 3.9 mm (i.d.) x 30 cm • Mobile phase: acetonitrile, water (55:45) • Flow rate: 1.00 mL/min.

[2] = Preparation of solid freeze-dried HPCD complexes: degree of incorporation; type: physicochemical; settings: freeze-dried complex from 50% w/w HPCD (ASDS 5.1)
Experimental: An excess of E2-CDS was added and the solution then was purged with helium. The resulting suspension was then sonicated for 30 minutes, filtered through a glass filter (ASTM 10-15M, Pyrex No. 36060) and freeze-dried overnight. Best results were obtained by hard-freezing the aqueous solution of the E2-CDS/HPCD complex for at least 10 hours before lyophilization. The degree of complex formation was determined by dissolving a small amount of the dry complex in methanol and then analyzing by high pressure liquid chromatography (HPLC).
An excess of E2-CDS or other CDS was added to a 50% w/w solution of HPCD. The suspension was sonicated for 30 minutes, filtered through 0.45 µm PVDF membranes and freeze-dried. The degree of incorporation was determined either spectrophotometrically or by HPLC. In some cases, the effect of solubilizing agents on the degree of incorporation was examined. This involved adding small amounts of polyoxyethylene 20 cetyl ether (Brij), polyoxyethylene sorbitan monooleate (Tween 80) or ethanol to the aqueous solution prior to lyophilization.
The retention time was 5.2 min. Other compounds were assayed spectrophotometrically.
The solution was degassed and the suspension was sonicated for 30 minutes, after which it was filtered and the filtrate was lyophilized. The dried filtrate contained 65.6 mg testosterone propionate or 29.6 mg T-CDS1 per gram of cyclodextrin complex. Compounds were analyzed for decomposition by thin-layer chromatography and ultraviolet absorption.

[3] = Phase-solubility experiments in aqueous HPCD at 30.0±0.2°C (chlorambucil, lomustine, melphalan)
Experimental: (§1) After equilibration in a 30.0±0.2°C water bath in the dark for up to 72 hours, aliquots of the mixtures were filtered through 0.45 Mm membrane filters, diluted and the drug concentration determined by HPLC or UV methods.

physchem = settings: for solubility at 4 h: 50% aqueous hpcd
Experimental: as §1

CN(Cc1cnc2nc(N)nc(N)c2n1)c1ccc(C(=O)N[C@@H](CCC(=O)O)C(=O)O)cc1 [Methotrexate]
solubility ([1]; 50% w/w hpcd, pH 7.6): 10000 µg/mL (≈ 22 mM) | solubility ([1]; water): 45 µg/mL (≈ 0.099 mM)

C[C@@H]1C[C@H]2[C@@H]3CCC4=CC(=O)C=C[C@]4(C)[C@@]3(F)[C@@H](O)C[C@]2(C)[C@@]1(O)C(=O)CO [Dexamethasone]
solubility ([1]; 25% w/v hpcd): 24200 µg/mL (≈ 61.6 mM) | solubility ([1]; 50% w/w hpcd): 44300 µg/mL (≈ 113 mM) | solubility ([1]; water): 8 µg/mL (≈ 0.0204 mM)

Estradiol 17-Valerate
Amount of Drug in Dry Complex [2]: 23.5 mg/g

O=NN(CCCl)C(=O)NC1CCCCC1 [Lomustine]
solubility ([3]; 1% w/w aqueous hpcd): 380 µg/mL (≈ 1.63 mM) | solubility ([3]; 5% w/w aqueous hpcd): 1680 µg/mL (≈ 7.19 mM) | solubility ([3]; 10% w/w aqueous hpcd): 3330 µg/mL (≈ 14.2 mM) | solubility ([3]; 15% w/w aqueous hpcd): 6260 µg/mL (≈ 26.8 mM) | solubility ([3]; 20% w/v aqueous hpcd): 8440 µg/mL (≈ 36.1 mM) | solubility ([3]; 20% w/w aqueous hpcd): 8440 µg/mL (≈ 36.1 mM) | increase: water/25% HPCD ([3]; 25% HPCD versus water): 49.44 | solubility ([3]; 25% w/v aqueous hpcd): 8900 µg/mL (≈ 38.1 mM) | solubility ([3]; 25% w/w aqueous hpcd): 8900 µg/mL (≈ 38.1 mM) | solubility at 4 h ([3]; 50% w/w aqueous hpcd): ~12000 µg/mL (≈ 51.3 mM) | degradation during the solubility experiments ([3]; aqueous HPCD, 30°): Some degradation occurred | solubility ([3]; water): 180 µg/mL (≈ 0.77 mM) | solubility ([3]; water (0% hpcd)): 180 µg/mL (≈ 0.77 mM)

CC1=C(/C=C/C(C)=C/C=C/C(C)=C/CO)C(C)(C)CCC1 [All-trans-Retinol]
Increase in Solubility (HPCD/water) [1]: ∼4,600 | solubility ([1]; 50% w/w hpcd): 4600 µg/mL (≈ 16.1 mM) | solubility ([1]; water): 1 µg/mL (≈ 0.00349 mM)

O=C(O)CCCc1ccc(N(CCCl)CCCl)cc1 [Chlorambucil]
solubility at 3 h (physchem; 1% aqueous hpcd): 740 µg/mL (≈ 2.43 mM) | solubility at 84 h (physchem; 1% aqueous hpcd): 550 µg/mL (≈ 1.81 mM) | solubility at 3 h (physchem; 2% aqueous hpcd): 1480 µg/mL (≈ 4.86 mM) | solubility at 84 h (physchem; 2% aqueous hpcd): 840 µg/mL (≈ 2.76 mM) | solubility at 3 h (physchem; 3% aqueous hpcd): 2370 µg/mL (≈ 7.79 mM) | solubility at 84 h (physchem; 3% aqueous hpcd): 680 µg/mL (≈ 2.24 mM) | solubility at 3 h (physchem; 4% aqueous hpcd): 3220 µg/mL (≈ 10.6 mM) | solubility at 84 h (physchem; 4% aqueous hpcd): 1500 µg/mL (≈ 4.93 mM) | solubility at 3 h (physchem; 5% aqueous hpcd): 1460 µg/mL (≈ 4.8 mM) | solubility at 84 h (physchem; 5% aqueous hpcd): 1800 µg/mL (≈ 5.92 mM) | solubility at 84 h (physchem; 7% aqueous hpcd): 3760 µg/mL (≈ 12.4 mM) | solubility at 3 h (physchem; 10% aqueous hpcd): 4960 µg/mL (≈ 16.3 mM) | solubility at 84 h (physchem; 10% aqueous hpcd): 5200 µg/mL (≈ 17.1 mM) | solubility at 3 h (physchem; 15% aqueous hpcd): 6360 µg/mL (≈ 20.9 mM) | solubility at 84 h (physchem; 15% aqueous hpcd): 7600 µg/mL (≈ 25 mM) | solubility (physchem; 20% aqueous hpcd): 13100 µg/mL (≈ 43 mM) | solubility at 3 h (physchem; 20% aqueous hpcd): 8490 µg/mL (≈ 27.9 mM) | solubility at 84 h (physchem; 20% aqueous hpcd): 13100 µg/mL (≈ 43 mM) | solubility (physchem; 25% aqueous hpcd): 18400 µg/mL (≈ 60.5 mM) | solubility at 3 h (physchem; 25% aqueous hpcd): 8850 µg/mL (≈ 29.1 mM) | solubility at 84 h (physchem; 25% aqueous hpcd): 18400 µg/mL (≈ 60.5 mM) | solubility at 4 h (physchem): ~30000 µg/mL (≈ 98.6 mM) | solubility at 3 h (physchem; aqueous 7% hpcd): 2710 µg/mL (≈ 8.91 mM) | solubility (physchem; water): 410 µg/mL (≈ 1.35 mM) | solubility at 3 h (physchem; water (0% hpcd)): 10 µg/mL (≈ 0.0329 mM) | solubility at 84 h (physchem; water (0% hpcd)): 410 µg/mL (≈ 1.35 mM)

C#C[C@]1(OC(C)=O)CC[C@H]2[C@@H]3CCC4=CC(=O)CC[C@@H]4[C@H]3CC[C@@]21C [Norethindrone acetate]
Increase in Solubility (HPCD/water) [1]: ∼97,500 | solubility ([1]; 25% w/v hpcd): 9410 µg/mL | solubility ([1]; 50% w/w hpcd): 19500 µg/mL | solubility ([1]; water): 0.2 µg/mL

1-methyl-3-N-[3-(benzyloxycarbonyl)propyl]-carbamoyl-1,4-dihydropyridine [GABA-CDS1]
Amount of Drug in Dry Complex [2]: 160 mg/g

1-methyl-3-{[2-(9-guanylmethoxy)ethoxy]carbonyl}-1,4-dihydropyridine [ACV-CDS]
Amount of Drug in Dry Complex [2]: 25 mg/g

CN1CCN=C(c2ccccc2)c2cc(Cl)ccc21 [Medazepam]
solubility ([1]; 50% w/w hpcd, pH 7.5): 8300 µg/mL (≈ 30.7 mM) | solubility ([1]; water): 10 µg/mL (≈ 0.0369 mM)

O=C1NC(=O)C(c2ccccc2)(c2ccccc2)N1 [Phenytoin]
Increase in Solubility (HPCD/water) [1]: ∼450 | solubility ([1]; 50% w/w hpcd): 9300 µg/mL (≈ 36.9 mM) | solubility ([1]; water): 20 µg/mL (≈ 0.0793 mM)

N[C@@H](Cc1ccc(N(CCCl)CCCl)cc1)C(=O)O [Melphalan]
solubility (physchem; 1% aqueous hpcd): 4160 µg/mL (≈ 13.6 mM) | solubility (physchem; 2% aqueous hpcd): 4300 µg/mL (≈ 14.1 mM) | solubility (physchem; 3% aqueous hpcd): 6240 µg/mL (≈ 20.4 mM) | solubility (physchem; 4% aqueous hpcd): 7140 µg/mL (≈ 23.4 mM) | solubility (physchem; 5% aqueous hpcd): 7200 µg/mL (≈ 23.6 mM) | solubility (physchem; 7% aqueous hpcd): 10500 µg/mL (≈ 34.4 mM) | solubility (physchem; 10% aqueous hpcd): 13400 µg/mL (≈ 43.8 mM) | solubility (physchem; 15% aqueous hpcd): 17600 µg/mL (≈ 57.8 mM) | solubility (physchem; 20% aqueous hpcd): 24800 µg/mL (≈ 81.1 mM) | solubility (physchem; 25% aqueous hpcd): 31400 µg/mL (≈ 103 mM) | solubility at 4 h (physchem): ~21900 µg/mL (≈ 71.8 mM) | solubility (physchem; water): 1260 µg/mL (≈ 4.13 mM) | solubility (physchem; water (0% hpcd)): 1260 µg/mL (≈ 4.13 mM)

C#C[C@]1(O)CC[C@H]2[C@@H]3CCc4cc(OC)ccc4[C@H]3CC[C@@]21C [Ethynylestradiol 3-methyl ether]
Increase in Solubility (HPCD/water) [1]: ∼13,000 | solubility ([1]; 25% w/v hpcd): 7130 µg/mL (≈ 23 mM) | solubility ([1]; 50% w/w hpcd): 13300 µg/mL (≈ 42.8 mM) | solubility ([1]; water): 1 µg/mL (≈ 0.00322 mM)

C#C[C@]1(O)CC[C@H]2[C@@H]3CCc4cc(O)ccc4[C@H]3CC[C@@]21C [17 α-Ethynylestradiol]
solubility ([1]; 25% w/v hpcd): 34500 µg/mL (≈ 116 mM) | solubility ([1]; 50% w/w hpcd): 68200 µg/mL (≈ 230 mM) | solubility ([1]; water): 8 µg/mL (≈ 0.027 mM)
